Data on three compounds can be found in patent US12290601B2, “Pharmaceutical composition comprising axitinib” (Synthon B.V., priority 2019, dated 2025).

For series [1] the following is noted: cited from earlier work.
For series [2] the following is noted: among polymorphic forms; cited from earlier work.
Series [3] in a line: Photo-stability of crystalline forms. In kind it is physicochemical. To be noted: versus form XLI.
A short description of the next series: Aqueous solubility. In kind it is physicochemical. To be noted: versus form XLI.

Where two headings read alike, the source gives them in different places.

For the compound `CNC(=O)c1ccccc1Sc1ccc2c(/C=C/c3ccccn3)n[nH]c2c1` [Axitinib, N-methyl-2-({3-[(E)-2-pyridin-2-ylethenyl]-1H-indazol-6-yl}sulfanyl)benzamide], the solubility entry in series [1] was “low solubility”; in series [1] (gastric, pH 1.7), “highly soluble”.

For `CNC(=O)c1ccccc1Sc1ccc2c(/C=C/c3ccccn3)n[nH]c2c1` [Form XLI, N-methyl-2-({3-[(E)-2-pyridin-2-ylethenyl]-1H-indazol-6-yl}sulfanyl)benzamide], the thermodynamic stability entry in series [2] was “most thermodynamically stable”.

In the case of `CNC(=O)c1ccccc1Sc1ccc2c(/C=C/c3ccccn3)n[nH]c2c1` [axitinib form IV, N-methyl-2-({3-[(E)-2-pyridin-2-ylethenyl]-1H-indazol-6-yl}sulfanyl)benzamide], the “photo-stability compared to crystalline axitinib form XLI” value in series [3] is listed as “less photo-stable”. The “aqueous solubility, fold higher compared to crystalline axitinib form XLI” value in the series “Aqueous solubility” was 2-3 fold.
